Measurements reported in US20050053669A1, “Administration form for the oral application of poorly soluble acidic and amphorteric drugs” (Boehringer Ingelheim International GmbH, priority 2003, published 2005).

Legend:
[1] = phase I study, plasma levels on increasing the dose; type: in vivo, human
From the text: Generally increasing the dose in order to compensate for the reduced bioavailability in patients is frequently undesirable because of the waste of active substance and the greater burden on the patient and the associated risk of side effects, for example, or even totally impossible, on the grounds of drug safety.

[2] = solubility of the active substance; type: physicochemical
Description: The solubility of a compound may be determined by dispersing an excess of the compound at ambient temperature in the medium in question and shaking it vigorously for a defined length of time (approx. 1 to 24 h) until equilibrium is achieved. After filtration the pH is determined in the clear filtrate and the concentration of the dissolved substance is determined by spectral photometry or some other suitable analytical process.

| plasma levels achieved with 200 mg ([1]; 200 mg compared with 600 mg) | higher plasma levels on increasing the dose ([1]; dose increased from 100 to 600 mg) | solubility in an acidic medium [2] | Structure (SMILES) |
| --- | --- | --- | --- |
| equal to those obtained with 600 mg | about 50% | – | O=C(O)CCC/C=C(\c1ccc(CCNS(=O)(=O)c2ccc(Cl)cc2)cc1)c1cccnc1 [DT-TX 30] |
| – | – | readily soluble | CCCc1nc2c(C)cc(-c3nc4ccccc4n3C)cc2n1Cc1ccc(-c2ccccc2C(=O)O)cc1 [telmisartan] |
